Literature values as cited in patent US10406232B2, “Oral delivery compositions for treating dermatitis disorders in mammals” (Vets Plus, Inc., priority 2015, dated 2019).

Tested on: dendritic cells (DCs)
Settings: through sequential p38 MAP kinase phosphorylation and caspase 3-activation

## CC(C)[C@]12O[C@H]1[C@@H]1O[C@]13[C@]1(O[C@H]1C[C@H]1C4=C(CC[C@@]13C)C(=O)OC4)[C@@H]2O [triptolide]
  concentration that induces apoptosis of DCs: ≥ 20 ng/mL
